Laboratory results as given in patent publication US4663309A, “Novel peptide hormones with calcitonin-like activity” (University Patents, Inc., priority 1985, dated 1987).
“Also recorded” adds a separate entry of the source. Bridge positions count the residues as written; N and C are the ends. Peptide text beside a SMILES is read from it.

Legend:
[1] = Binding to single bilayer egg lecithin vesicles; assay type: physicochemical; conditions: for Adsorption to the surface of single bilayer egg lecithin vesicles: 1 to 100 μM peptide, SCT-I at pH 7.4 or pH 3.0; for N, upper limit of bound peptide per vesicle / Kd: 7×10^-4 M lecithin; for N, upper limit of bound peptide per vesicle: pH 7.4; for Kd: pH 7.4, 45 min at 21° C., read-out: K, dissociation constant for vesicle binding; for A∞·N product: A∞ from the monolayer studies in Example 7
Procedure: Egg lecithin single bilayer vesicles (SBVs) were prepared by rapid injection of an ethanolic egg yolk lecithin (Avanti Polar-Lipids Inc., Birmingham, AL) solution into aqueous 0.16M KCl by the method of Batzri, S. and E. D. Korn, Biochim. Biophys. Acta 298:1015(1973) and purified by filtration through a 2.5 cm×87 cm column of Fractogel TSK HW-75(F)™ (Pierce Chemical Co., Rockford, IL). After purification, vesicles were characterized by gel filtration through a 1.5 cm×40 cm column of Sepharose CL-4B™ (Pharmacia Fine Chemicals) by the method of Batzri and Korn, supra. The concentration of vesicles in stock solutions were determined by the phosphate assay of Ames, B. N. and D. T. Dubin, J. Biol. Chem. 235:769(1960). In a typical binding experiment, varying concentrations of peptide were incubated for 45 min at 21° C. with vesicles (7×10^-4 M lecithin) in 0.02M sodium phosphate buffer, pH 7.4 containing 0.16M KCl in a total volume of 300 μl for 45 min. Free peptide was separated from vesicle-bound peptide by rapid filtration through a 1.4 cm×6.3 cm column of Sepharose CL-6B™ (Pharmacia Fine Chemicals) using the same buffer as above the eluent. The concentration of peptide in each fraction was determined using fluorescamine after first disrupting the vesicles with isopropanol (20% by volume).
The data for MCT-I and MCT-II were analyzed according to the equation Pf =(N·V·Pf /Pb)-K (Adamson, A. W., Physical Chemistry of Surfaces, 3rd Ed. (Wiley Interscience, New York, 1976), p. 388), where Pf and Pb are the concentration of free and bound peptide respectively, V is the initial molarity of vesicles (3200 phospholipids per vesicle), N is the upper limit of Pf /V, and K is the dissociation constant. Plots of V·Pf /Pb versus Pf were linear and gave K=12.9±4.8 μM with N=50±5 for MCT-I and K=6.7±1.7 μM, N= 68±2 for MCT-II. The product, A.infin. ·N, where A.infin. was obtained from the monolayer studies in Example 7, are nearly the same (A.infin. ·N(MCT-I) =2.2±0.2×10^4 Å^2, A.infin. ·N(MCT-II) =2.5±0.1×10^4 Å^2), accounting for the difference in observed values of N. A.infin. ·N is also in reasonable agreement with estimates of the available surface area between the phospholipid head groups of 230 Å diameter vesicles (1.8±0.6×10^4 Å^2; Kupferberg, J. P., S. Yokoyama, and F. J. Kezdy, J. Biol. Chem. 256:6274(1981)).

male Sprague-Dawley rats = test: In vivo relative hypocalcemic potency in rats (Example 10); design: species or system rat
Procedure: The relative hypocalcemic potency of MCT-II and SCT-I was assessed by giving 3 to 4 week-old male Sprague-Dawley rats (Charles River Breeding Laboratories) subcutaneous injections of hormone in 0.9% saline containing 0.1% BSA. In each experiment, 25 rats were divided into 5 groups of 5 rats each and each group given either saline alone or saline with hormone. Blood samples were obtained by cardiac puncture from the ether-anesthetized rats 1 hr after injection. 200 μl of the blood plasma was diluted in 5 ml of 5% trichloroacetic acid-1000 ppm lithium (Chem-Chek Consulting Inc., South Boundbrook, NJ) and centrifuged before determining the calcium concentration by plasma emission spectrometry (Beckman Spectra Span IV™, Beckman Instruments). Calcium standards were also purchased from Chem-Chek Consulting Inc.

[2] = molecular target: T1, brain receptors (calcitonin receptors, crude rat brain membranes) (Rattus norvegicus, UniProt P32214); conditions: tubes pretreated with peptide, 30 min at 4° C.
T1 sequence (P32214 25-516): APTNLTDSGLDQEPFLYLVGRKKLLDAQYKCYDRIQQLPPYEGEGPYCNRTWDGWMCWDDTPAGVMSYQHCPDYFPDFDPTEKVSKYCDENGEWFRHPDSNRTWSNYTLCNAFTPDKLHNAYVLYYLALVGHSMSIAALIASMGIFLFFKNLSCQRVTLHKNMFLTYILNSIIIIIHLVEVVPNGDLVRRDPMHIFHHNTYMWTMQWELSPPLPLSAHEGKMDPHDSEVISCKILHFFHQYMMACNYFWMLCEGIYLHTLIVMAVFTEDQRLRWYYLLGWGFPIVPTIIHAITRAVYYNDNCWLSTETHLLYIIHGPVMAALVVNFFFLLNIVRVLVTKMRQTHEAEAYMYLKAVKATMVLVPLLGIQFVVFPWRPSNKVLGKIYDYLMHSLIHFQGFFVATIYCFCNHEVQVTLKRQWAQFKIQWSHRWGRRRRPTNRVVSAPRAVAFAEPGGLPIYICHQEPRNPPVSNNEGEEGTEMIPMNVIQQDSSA

Adsorption to the surface of single bilayer egg lecithin vesicles [1]	N, upper limit of bound peptide per vesicle [1]	Kd [1]	A∞·N product [1]	IC50 for brain receptors, calculated from theoretical curves fitted to the data [2]	SMILES	Activity relative to MCT-I (male Sprague-Dawley rats; in all assays used to compare them)	Hypocalcemic potency relative to SCT-I (male Sprague-Dawley rats; subcutaneous, 0.1 to 100 ng/100 g body weight, 1 hr after injection, b99: all assays used to compare them)
adsorb to the surface	50±5	12.9 ± 4.8 µM	2.2±0.2×10^4 Å^2	–	CC(C)C[C@@H]1NC(=O)[C@H](CC(N)=O)NC(=O)CNC(=O)[C@@H](N)CSSC[C@@H](C(=O)N[C@@H](CC(C)C)C(=O)N[C@@H](CC(C)C)C(=O)N[C@@H](CCC(N)=O)C(=O)N[C@@H](CCC(N)=O)C(=O)N[C@@H](Cc2c[nH]c3ccccc23)C(=O)N[C@@H](CCC(N)=O)C(=O)N[C@@H](CCCCN)C(=O)N[C@@H](CC(C)C)C(=O)N[C@@H](CC(C)C)C(=O)N[C@@H](CCC(N)=O)C(=O)N[C@@H](CCCCN)C(=O)N[C@@H](CC(C)C)C(=O)N[C@@H](CCCCN)C(=O)N[C@@H](CCC(N)=O)C(=O)N[C@@H](CC(C)C)C(=O)N2CCC[C@H]2C(=O)N[C@@H](CCCNC(=N)N)C(=O)N[C@H](C(=O)N[C@@H](CC(N)=O)C(=O)N[C@H](C(=O)NCC(=O)N[C@@H](CO)C(=O)NCC(=O)N[C@H](C(=O)N2CCC[C@H]2C(N)=O)[C@@H](C)O)[C@@H](C)O)[C@@H](C)O)NC(=O)[C@H]([C@@H](C)O)NC(=O)[C@H](CO)NC1=O [MCT-I] (H-CGNLSTCLLQQWQKLLQKLKQLPRTNTGSGTP-NH2; disulfide 1-7)	–	–
adsorb to the surface	68±2	6.7 ± 1.7 µM	2.5±0.1×10^4 Å^2	0.0006 µM	CC(C)C[C@H](NC(=O)[C@H](CCCCN)NC(=O)[C@H](CCC(N)=O)NC(=O)[C@H](CC(C)C)NC(=O)[C@H](CCC(N)=O)NC(=O)[C@H](CCC(N)=O)NC(=O)[C@H](CC(C)C)NC(=O)[C@H](CC(C)C)NC(=O)[C@@H]1CSSC[C@H](N)C(=O)N[C@@H](CO)C(=O)N[C@@H](CC(N)=O)C(=O)N[C@@H](CC(C)C)C(=O)N[C@@H](CO)C(=O)N[C@@H]([C@@H](C)O)C(=O)N1)C(=O)N[C@@H](CC(C)C)C(=O)N[C@@H](CCC(N)=O)C(=O)N[C@@H](CCCCN)C(=O)N[C@@H](CC(C)C)C(=O)N[C@@H](CCCCN)C(=O)N[C@@H](CCC(N)=O)C(=O)N[C@@H](Cc1ccc(O)cc1)C(=O)N1CCC[C@H]1C(=O)N[C@@H](CCCNC(=N)N)C(=O)N[C@H](C(=O)N[C@@H](CC(N)=O)C(=O)N[C@H](C(=O)NCC(=O)N[C@@H](CO)C(=O)NCC(=O)N[C@H](C(=O)N1CCC[C@H]1C(N)=O)[C@@H](C)O)[C@@H](C)O)[C@@H](C)O [MCT-II] (H-CSNLSTCLLQQLQKLLQKLKQYPRTNTGSGTP-NH2; disulfide 1-7; N-terminus assumed)	10 times	indistinguishable from that of our preparation of SCT-I; also recorded: as active as SCT-I
